Results from publication PMC9030254, “Target Hopping from Protein Kinases to PXR: Identification of Small-Molecule Protein Kinase Inhibitors as Selective Modulators of Pregnane X Receptor from TüKIC Library” (Cells, 2022).

Legend:
Assay in all cases: Kinase profiling
Format in all cases: biochemical
[1] = molecular target: T1, MKNK1 (Homo sapiens, UniProt Q9BUB5)
T1 construct: purchased ProQinase (Freiburg, Germany)
Protocol: (§1) The analysis was performed by ProQinase (Freiburg, Germany).

[2] = molecular target: T2, EPHB4 (Homo sapiens, UniProt P54760)
T2 construct: purchased ProQinase (Freiburg, Germany)
T2 sequence (P54760 16-987): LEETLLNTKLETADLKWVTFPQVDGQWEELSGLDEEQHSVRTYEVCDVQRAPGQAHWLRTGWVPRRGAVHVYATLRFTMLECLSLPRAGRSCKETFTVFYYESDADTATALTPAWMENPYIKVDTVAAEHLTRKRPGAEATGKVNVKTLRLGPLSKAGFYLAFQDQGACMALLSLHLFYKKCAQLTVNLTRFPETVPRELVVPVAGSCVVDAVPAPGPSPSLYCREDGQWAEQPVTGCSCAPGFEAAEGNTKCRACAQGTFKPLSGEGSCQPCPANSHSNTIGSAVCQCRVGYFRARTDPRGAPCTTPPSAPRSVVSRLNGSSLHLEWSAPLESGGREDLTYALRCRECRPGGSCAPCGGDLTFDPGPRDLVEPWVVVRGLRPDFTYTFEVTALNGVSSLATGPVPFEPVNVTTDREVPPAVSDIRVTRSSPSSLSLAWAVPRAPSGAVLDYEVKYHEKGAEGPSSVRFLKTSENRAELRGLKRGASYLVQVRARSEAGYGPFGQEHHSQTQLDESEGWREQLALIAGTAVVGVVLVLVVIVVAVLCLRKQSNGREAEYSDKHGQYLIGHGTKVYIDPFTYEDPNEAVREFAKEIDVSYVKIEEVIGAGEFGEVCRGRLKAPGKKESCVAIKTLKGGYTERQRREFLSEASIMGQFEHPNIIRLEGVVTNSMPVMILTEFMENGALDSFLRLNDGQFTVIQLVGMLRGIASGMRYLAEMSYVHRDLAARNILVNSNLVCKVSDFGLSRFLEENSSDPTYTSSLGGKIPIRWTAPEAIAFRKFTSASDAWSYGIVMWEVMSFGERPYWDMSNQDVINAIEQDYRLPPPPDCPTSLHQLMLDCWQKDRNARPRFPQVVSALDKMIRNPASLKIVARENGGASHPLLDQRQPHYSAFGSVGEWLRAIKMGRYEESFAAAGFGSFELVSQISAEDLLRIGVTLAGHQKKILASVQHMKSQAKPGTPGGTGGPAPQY
Protocol: as §1

[3] = molecular target: T3, EPHA1 (Homo sapiens, UniProt P21709)
T3 construct: purchased ProQinase (Freiburg, Germany)
T3 sequence (P21709 26-976): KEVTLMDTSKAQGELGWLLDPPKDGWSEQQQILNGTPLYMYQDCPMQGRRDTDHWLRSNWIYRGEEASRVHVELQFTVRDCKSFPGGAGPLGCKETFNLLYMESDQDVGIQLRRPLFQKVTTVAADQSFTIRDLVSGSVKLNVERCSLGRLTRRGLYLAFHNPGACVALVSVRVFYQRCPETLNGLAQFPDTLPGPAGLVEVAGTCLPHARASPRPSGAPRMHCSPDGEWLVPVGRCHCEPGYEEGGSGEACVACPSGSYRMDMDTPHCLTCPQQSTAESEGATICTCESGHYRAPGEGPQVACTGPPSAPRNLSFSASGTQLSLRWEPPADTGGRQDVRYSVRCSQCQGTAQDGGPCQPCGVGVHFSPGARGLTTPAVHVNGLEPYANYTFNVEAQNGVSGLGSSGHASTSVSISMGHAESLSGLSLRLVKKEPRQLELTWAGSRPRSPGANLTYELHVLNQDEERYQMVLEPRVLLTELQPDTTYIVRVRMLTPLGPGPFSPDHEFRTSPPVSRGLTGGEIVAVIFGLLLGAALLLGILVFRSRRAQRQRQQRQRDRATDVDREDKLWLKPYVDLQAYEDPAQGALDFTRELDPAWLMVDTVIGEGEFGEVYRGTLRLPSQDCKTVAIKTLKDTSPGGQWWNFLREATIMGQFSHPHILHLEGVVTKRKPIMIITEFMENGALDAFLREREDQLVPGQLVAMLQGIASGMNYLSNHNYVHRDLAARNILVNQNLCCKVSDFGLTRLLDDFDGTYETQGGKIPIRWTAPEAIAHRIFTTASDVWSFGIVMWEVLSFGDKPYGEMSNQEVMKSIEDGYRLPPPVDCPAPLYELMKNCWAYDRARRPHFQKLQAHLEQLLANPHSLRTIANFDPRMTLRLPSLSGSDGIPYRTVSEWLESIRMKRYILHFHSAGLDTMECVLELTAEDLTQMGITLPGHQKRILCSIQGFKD
Protocol: as §1

[4] = molecular target: T4, AKT2 (Homo sapiens, UniProt P31751)
T4 construct: purchased ProQinase (Freiburg, Germany)
T4 sequence (P31751 whole entry): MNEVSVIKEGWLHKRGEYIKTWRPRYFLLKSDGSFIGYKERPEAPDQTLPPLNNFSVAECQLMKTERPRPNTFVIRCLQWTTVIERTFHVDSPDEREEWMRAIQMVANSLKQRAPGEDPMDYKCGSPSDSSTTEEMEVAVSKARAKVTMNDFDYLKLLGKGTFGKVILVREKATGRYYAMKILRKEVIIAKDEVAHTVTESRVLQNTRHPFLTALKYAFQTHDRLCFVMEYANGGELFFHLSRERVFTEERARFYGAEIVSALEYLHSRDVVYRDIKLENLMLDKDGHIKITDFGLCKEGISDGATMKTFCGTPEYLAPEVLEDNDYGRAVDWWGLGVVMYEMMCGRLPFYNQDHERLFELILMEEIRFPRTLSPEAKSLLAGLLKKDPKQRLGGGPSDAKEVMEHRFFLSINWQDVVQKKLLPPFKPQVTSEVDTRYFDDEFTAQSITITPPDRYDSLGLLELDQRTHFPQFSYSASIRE
Protocol: as §1

[5] = molecular target: T5, GSK3beta (Homo sapiens, UniProt P49841)
T5 construct: purchased ProQinase (Freiburg, Germany)
T5 sequence (P49841 whole entry): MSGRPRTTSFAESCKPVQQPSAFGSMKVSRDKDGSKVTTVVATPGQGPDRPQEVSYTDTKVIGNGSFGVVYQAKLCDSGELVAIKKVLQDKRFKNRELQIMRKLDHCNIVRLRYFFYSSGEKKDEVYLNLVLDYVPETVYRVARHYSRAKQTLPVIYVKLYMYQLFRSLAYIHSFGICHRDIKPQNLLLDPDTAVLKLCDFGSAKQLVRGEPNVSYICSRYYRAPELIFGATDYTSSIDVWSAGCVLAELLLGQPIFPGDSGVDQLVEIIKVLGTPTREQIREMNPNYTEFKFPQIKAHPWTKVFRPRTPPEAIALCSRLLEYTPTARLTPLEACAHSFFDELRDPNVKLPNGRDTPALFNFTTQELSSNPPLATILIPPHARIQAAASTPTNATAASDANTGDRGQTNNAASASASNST
Protocol: as §1

[6] = molecular target: T6, CDK1/CycB1 (Homo sapiens, UniProt P06493)
T6 construct: purchased ProQinase (Freiburg, Germany)
T6 sequence (P06493 whole entry): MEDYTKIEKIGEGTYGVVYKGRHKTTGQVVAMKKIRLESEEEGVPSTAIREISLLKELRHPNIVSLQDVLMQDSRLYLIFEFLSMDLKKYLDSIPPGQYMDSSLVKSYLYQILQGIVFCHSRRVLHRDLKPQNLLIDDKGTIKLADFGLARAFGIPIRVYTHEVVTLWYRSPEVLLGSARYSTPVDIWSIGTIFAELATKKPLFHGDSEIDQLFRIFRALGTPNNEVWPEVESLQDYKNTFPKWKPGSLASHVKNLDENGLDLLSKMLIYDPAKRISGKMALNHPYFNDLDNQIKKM
T6 sequence (P14635 whole entry partner): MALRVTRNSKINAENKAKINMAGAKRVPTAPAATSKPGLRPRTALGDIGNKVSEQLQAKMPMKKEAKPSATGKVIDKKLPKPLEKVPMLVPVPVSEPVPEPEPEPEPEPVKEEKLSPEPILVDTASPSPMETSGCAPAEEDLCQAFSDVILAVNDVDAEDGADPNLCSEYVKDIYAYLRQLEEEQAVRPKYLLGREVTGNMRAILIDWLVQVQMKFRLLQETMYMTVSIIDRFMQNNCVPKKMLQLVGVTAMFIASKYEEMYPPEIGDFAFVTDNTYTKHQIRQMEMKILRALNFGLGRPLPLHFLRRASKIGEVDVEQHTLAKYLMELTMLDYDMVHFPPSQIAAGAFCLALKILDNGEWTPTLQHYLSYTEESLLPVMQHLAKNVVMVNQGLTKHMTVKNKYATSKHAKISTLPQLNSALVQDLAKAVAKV
Protocol: as §1

[7] = molecular target: T7, CAMK2A (Homo sapiens, UniProt Q9UQM7)
T7 construct: purchased ProQinase (Freiburg, Germany)
T7 sequence (Q9UQM7 whole entry): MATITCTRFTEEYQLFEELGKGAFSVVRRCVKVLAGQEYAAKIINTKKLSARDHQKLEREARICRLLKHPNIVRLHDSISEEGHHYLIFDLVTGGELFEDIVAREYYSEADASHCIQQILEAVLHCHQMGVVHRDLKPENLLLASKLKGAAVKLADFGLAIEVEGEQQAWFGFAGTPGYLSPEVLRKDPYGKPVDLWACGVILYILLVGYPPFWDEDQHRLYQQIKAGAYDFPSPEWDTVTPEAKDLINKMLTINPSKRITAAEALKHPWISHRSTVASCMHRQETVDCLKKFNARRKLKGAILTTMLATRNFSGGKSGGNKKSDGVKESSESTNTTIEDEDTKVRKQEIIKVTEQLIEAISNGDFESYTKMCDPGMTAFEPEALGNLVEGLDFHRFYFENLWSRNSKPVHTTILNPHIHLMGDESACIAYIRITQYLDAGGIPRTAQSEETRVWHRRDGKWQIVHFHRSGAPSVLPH
Protocol: as §1

[8] = molecular target: T8, CK2alpha2 (Homo sapiens, UniProt P19784)
T8 construct: purchased ProQinase (Freiburg, Germany)
T8 sequence (P19784 whole entry): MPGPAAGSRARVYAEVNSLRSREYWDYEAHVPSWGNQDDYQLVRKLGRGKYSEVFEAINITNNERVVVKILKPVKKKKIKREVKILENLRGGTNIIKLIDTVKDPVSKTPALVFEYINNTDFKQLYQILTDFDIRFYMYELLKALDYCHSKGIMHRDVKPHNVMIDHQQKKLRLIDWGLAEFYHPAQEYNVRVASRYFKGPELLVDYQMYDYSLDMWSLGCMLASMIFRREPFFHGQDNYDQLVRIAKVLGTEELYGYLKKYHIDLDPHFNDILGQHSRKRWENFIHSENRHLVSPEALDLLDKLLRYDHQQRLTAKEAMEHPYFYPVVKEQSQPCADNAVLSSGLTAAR
Protocol: as §1

[9] = molecular target: T9, p38delta (Homo sapiens, UniProt O15264)
T9 construct: purchased ProQinase (Freiburg, Germany)
T9 sequence (O15264 1-365): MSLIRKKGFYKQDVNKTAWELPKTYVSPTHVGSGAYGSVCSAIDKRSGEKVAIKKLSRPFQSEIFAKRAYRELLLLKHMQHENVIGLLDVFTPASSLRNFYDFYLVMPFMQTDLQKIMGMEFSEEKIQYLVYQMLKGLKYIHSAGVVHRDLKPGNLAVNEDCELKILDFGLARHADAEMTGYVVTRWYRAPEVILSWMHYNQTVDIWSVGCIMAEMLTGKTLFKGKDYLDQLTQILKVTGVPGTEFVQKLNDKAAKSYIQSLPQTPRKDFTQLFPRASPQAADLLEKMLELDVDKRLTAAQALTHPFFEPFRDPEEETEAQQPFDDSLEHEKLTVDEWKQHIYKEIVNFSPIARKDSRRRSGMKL
Protocol: as §1

T1 sequence (Q9BUB5 whole entry): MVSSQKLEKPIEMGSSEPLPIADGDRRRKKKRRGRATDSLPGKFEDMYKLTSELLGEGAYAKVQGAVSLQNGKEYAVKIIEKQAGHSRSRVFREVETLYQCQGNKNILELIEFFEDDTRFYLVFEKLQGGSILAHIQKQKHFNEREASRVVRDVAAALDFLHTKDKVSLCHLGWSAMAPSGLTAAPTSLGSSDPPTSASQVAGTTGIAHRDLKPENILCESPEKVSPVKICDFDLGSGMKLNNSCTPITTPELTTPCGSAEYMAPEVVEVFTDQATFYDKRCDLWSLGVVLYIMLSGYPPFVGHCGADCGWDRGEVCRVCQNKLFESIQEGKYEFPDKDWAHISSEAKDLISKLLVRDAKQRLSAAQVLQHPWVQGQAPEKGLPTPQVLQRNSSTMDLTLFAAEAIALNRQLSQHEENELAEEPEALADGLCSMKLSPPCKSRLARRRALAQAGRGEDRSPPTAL

Question: `O=C(Nc1ccc(F)c(Nc2ccc3c(c2)CCCCC3=O)c1)c1cccc(F)c1` [Compound 109] was tested. Which Residual activity ([1]; 1.0E-05 M) did it give?
Answer: 91 % of control

Question: And the Residual activity ([1]; 1.0E-06 M)?
Answer: 92 % of control

Question: What about the Residual activity ([2]; 1.0E-05 M) of the same compound?
Answer: 82 % of control

Question: And the Residual activity ([2]; 1.0E-06 M)?
Answer: 100 % of control

Question: What about the Residual activity ([3]; 1.0E-05 M) of the same compound?
Answer: 85 % of control

Question: And the Residual activity ([3]; 1.0E-06 M)?
Answer: 91 % of control

Question: And the Residual activity ([4]; 1.0E-05 M)?
Answer: 92 % of control

Question: And the Residual activity ([4]; 1.0E-06 M)?
Answer: 92 % of control

Question: And the Residual activity ([5]; 1.0E-05 M)?
Answer: 90 % of control

Question: And the Residual activity ([5]; 1.0E-06 M)?
Answer: 82 % of control

Question: And the Residual activity ([6]; 1.0E-05 M)?
Answer: 114 % of control

Question: And the Residual activity ([6]; 1.0E-06 M)?
Answer: 106 % of control

Question: What about the Residual activity ([7]; 1.0E-05 M) of the same compound?
Answer: 91 % of control

Question: What about the Residual activity ([7]; 1.0E-06 M) of the same compound?
Answer: 95 % of control

Question: And the Residual activity ([8]; 1.0E-05 M)?
Answer: 118 % of control

Question: What about the Residual activity ([8]; 1.0E-06 M) of the same compound?
Answer: 119 % of control

Question: What about the Residual activity ([9]; 1.0E-05 M) of the same compound?
Answer: 98 % of control

Question: What about the Residual activity ([9]; 1.0E-06 M) of the same compound?
Answer: 91 % of control

Question: `O=C(Cc1ccccc1)Nc1ccc(F)c(Nc2ccc3c(c2)CCCCC3=O)c1` [Compound 100] was tested. Which Residual activity ([1]; 1.0E-05 M) did it give?
Answer: 95 % of control

Question: What about the Residual activity ([1]; 1.0E-06 M) of the same compound?
Answer: 90 % of control

Question: What about the Residual activity ([2]; 1.0E-05 M) of the same compound?
Answer: 74 % of control

Question: And the Residual activity ([2]; 1.0E-06 M)?
Answer: 99 % of control

Question: What about the Residual activity ([3]; 1.0E-05 M) of the same compound?
Answer: 71 % of control

Question: What about the Residual activity ([3]; 1.0E-06 M) of the same compound?
Answer: 83 % of control

Question: What about the Residual activity ([4]; 1.0E-05 M) of the same compound?
Answer: 82 % of control

Question: And the Residual activity ([4]; 1.0E-06 M)?
Answer: 92 % of control

Question: What about the Residual activity ([5]; 1.0E-05 M) of the same compound?
Answer: 88 % of control

Question: What about the Residual activity ([5]; 1.0E-06 M) of the same compound?
Answer: 88 % of control

Question: And the Residual activity ([6]; 1.0E-05 M)?
Answer: 100 % of control

Question: And the Residual activity ([6]; 1.0E-06 M)?
Answer: 107 % of control

Question: And the Residual activity ([7]; 1.0E-05 M)?
Answer: 94 % of control

Question: What about the Residual activity ([7]; 1.0E-06 M) of the same compound?
Answer: 96 % of control

Question: What about the Residual activity ([8]; 1.0E-05 M) of the same compound?
Answer: 134 % of control

Question: What about the Residual activity ([8]; 1.0E-06 M) of the same compound?
Answer: 137 % of control

Question: And the Residual activity ([9]; 1.0E-05 M)?
Answer: 85 % of control

Question: What about the Residual activity ([9]; 1.0E-06 M) of the same compound?
Answer: 93 % of control
